T/C data for 18 compounds are collected here from PubChem BioAssay AID330 (DTP/NCI, 2004).

“And” between values parts separate entries of the source, which are not always exact repeats. Equal entries are not always repeated. Inconclusive results and toxic doses are left out.

The test has as its system P388 leukemia ip, CD2F1 mice, survival T/C. Put plainly: NCI In Vivo Anticancer Drug Screen. Data for tumor model P388 Leukemia (intraperitoneal) in CD2F1 (CDF1) mice. The conditions noted are these: endpoint: median survival time, higher = longer survival. The method in brief: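 Mice carrying the transplanted tumor received test compound or vehicle. Survival was recorded in each group, and the value is the treated-group measurement divided by that of the vehicle-treated control group.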

[1] abbreviates: dose: 12.5 mg/kg/injection, schedule: Q01DX009 (ip), vehicle: saline with Tween-80.
The mark [2] stands for this setting: dose: 12.5 mg/kg/injection, schedule: Q01DX009 (ip), vehicle: Klucel (hydroxypropylcellulose) (HPC).
Where [3] appears, read: dose: 50.0 mg/kg/injection, schedule: Q01DX009 (ip), vehicle: Klucel (hydroxypropylcellulose) (HPC).
[4] abbreviates: dose: 50.0 mg/kg/injection, schedule: Q01DX009 (ip), vehicle: saline with Tween-80.
Setting [5] is: dose: 50.0 mg/kg/injection, schedule: Q01DX009 (ip), vehicle: saline.
Setting [6] is: dose: 100.0 mg/kg/injection, schedule: Q01DX009 (ip), vehicle: saline with Tween-80.
[7] abbreviates: dose: 100.0 mg/kg/injection, schedule: Q01DX009 (ip), vehicle: saline.
Setting [8] is: dose: 200.0 mg/kg/injection, schedule: Q04DX003 (ip), vehicle: Klucel (hydroxypropylcellulose) (HPC).
The mark [9] stands for this setting: dose: 25.0 mg/kg/injection, schedule: Q01DX009 (ip), vehicle: saline with Tween-80.
[10] abbreviates: dose: 50.0 mg/kg/injection, schedule: Q01DX005 (ip), vehicle: Klucel (hydroxypropylcellulose) (HPC).
[11] abbreviates: dose: 100.0 mg/kg/injection, schedule: Q01DX005 (ip), vehicle: Klucel (hydroxypropylcellulose) (HPC).
The mark [12] stands for this setting: dose: 200.0 mg/kg/injection, schedule: Q01DX005 (ip), vehicle: Klucel (hydroxypropylcellulose) (HPC).
Setting [13] is: dose: 50.0 mg/kg/injection, schedule: Q01DX005 (ip), vehicle: saline.
[14] abbreviates: dose: 100.0 mg/kg/injection, schedule: Q01DX005 (ip), vehicle: saline.
The mark [15] stands for this setting: dose: 200.0 mg/kg/injection, schedule: Q01DX009 (ip), vehicle: saline.

As for `C=C1C(=O)OC2CC(C)C3CC(O)OC(O)C3(C)CC12` (configuration not stated), the T/C runs as follows: (dose: 1.56 mg/kg/injection, schedule: Q01DX009 (ip), vehicle: saline) 115 % of control; (dose: 3.12 mg/kg/injection, schedule: Q01DX009 (ip), vehicle: saline with Tween-80) 102 % of control; (dose: 3.13 mg/kg/injection, schedule: Q01DX009 (ip), vehicle: saline) 117 % of control; (dose: 6.25 mg/kg/injection, schedule: Q01DX009 (ip), vehicle: saline with Tween-80) 107 % of control; under setting [1], 99 % of control and 113 % of control.

`CSC(=S)Nc1nc2ccc(Cl)cc2s1`: the T/C is, setting by setting: (dose: 6.25 mg/kg/injection, schedule: Q01DX009 (ip), vehicle: Klucel (hydroxypropylcellulose) (HPC)) 104 % of control; under setting [2], 111 % of control; (dose: 25.0 mg/kg/injection, schedule: Q01DX009 (ip), vehicle: Klucel (hydroxypropylcellulose) (HPC)) 88 % of control.

For the compound `OC(CBr)C(O)C(O)C(O)CBr` (configuration not stated), the T/C is 106 % of control under setting [2]; 107 % of control and 109 % of control (dose: 36.0 mg/kg/injection, schedule: Q01DX005 (ip), vehicle: Klucel (hydroxypropylcellulose) (HPC)); 115 % of control under setting [3]; 114 % of control (dose: 50.0 mg/kg/injection, schedule: Q01DX009 (ip), vehicle: distilled water + Tween-80); 107 % of control under setting [4]; 96 % of control under setting [5]. The T/C runs as follows: (dose: 50.0 mg/kg/injection, schedule: Q01DX010 (ip), vehicle: saline) 109 % of control; (dose: 53.0 mg/kg/injection, schedule: Q01DX005 (ip), vehicle: Klucel (hydroxypropylcellulose) (HPC)) 120 % of control; (dose: 80.0 mg/kg/injection, schedule: Q01DX005 (ip), vehicle: Klucel (hydroxypropylcellulose) (HPC)) 173 % of control; (dose: 100.0 mg/kg/injection, schedule: Q01DX009 (ip), vehicle: distilled water + Tween-80) 124 % of control; under setting [6], 114 % of control; under setting [7], 123 % of control. For the same compound, the T/C (dose: 100.0 mg/kg/injection, schedule: Q01DX010 (ip), vehicle: saline) is 109 % of control; the T/C (dose: 120.0 mg/kg/injection, schedule: Q01DX005 (ip), vehicle: Klucel (hydroxypropylcellulose) (HPC)) was 170 % of control and 207 % of control; the T/C (dose: 180.0 mg/kg/injection, schedule: Q01DX005 (ip), vehicle: Klucel (hydroxypropylcellulose) (HPC)) was 163 % of control and 181 % of control; the T/C (dose: 200.0 mg/kg/injection, schedule: Q01DX009 (ip), vehicle: Klucel (hydroxypropylcellulose) (HPC)) is 107 % of control; the T/C (dose: 200.0 mg/kg/injection, schedule: Q01DX009 (ip), vehicle: distilled water + Tween-80) is 122 % of control; the T/C (dose: 200.0 mg/kg/injection, schedule: Q01DX009 (ip), vehicle: saline with Tween-80) was 113 % of control. The T/C (dose: 200.0 mg/kg/injection, schedule: Q01DX010 (ip), vehicle: saline) was 109 % of control; the T/C under setting [8] was 190 % of control; the T/C (dose: 300.0 mg/kg/injection, schedule: Q04DX003 (ip), vehicle: Klucel (hydroxypropylcellulose) (HPC)) was 200 % of control; the T/C (dose: 400.0 mg/kg/injection, schedule: Q01DX009 (ip), vehicle: Klucel (hydroxypropylcellulose) (HPC)) is 93 % of control; the T/C (dose: 400.0 mg/kg/injection, schedule: Q01DX009 (ip), vehicle: distilled water + Tween-80) was 86 % of control; the T/C (dose: 400.0 mg/kg/injection, schedule: Q01DX009 (ip), vehicle: saline with Tween-80) was 117 % of control. The T/C (dose: 800.0 mg/kg/injection, schedule: Q01DX009 (ip), vehicle: saline with Tween-80) is 120 % of control.

For the compound `Clc1ccc(OCCC(Cn2ccnc2)c2ccc(Cl)cc2Cl)c(Cl)c1` (configuration not stated), the T/C under setting [1] was 113 % of control, the T/C under setting [9] is 112 % of control and the T/C under setting [4] is 101 % of control.

As for `CC1(C)C(=O)C2=C(Nc3ccccc3C2C(C)(C)C)c2ccccc21` (configuration not stated), the T/C was 99 % of control under setting [10], 93 % of control under setting [11] and 92 % of control under setting [12].

For the compound `COC(=O)CCCCCCCCCCCC1C=CCC1` (configuration not stated), the T/C runs as follows: (dose: 100.0 mg/kg/injection, schedule: Q01DX001 (ip), vehicle: saline) 105 % of control; (dose: 200.0 mg/kg/injection, schedule: Q01DX001 (ip), vehicle: saline) 100 % of control; (dose: 400.0 mg/kg/injection, schedule: Q01DX001 (ip), vehicle: saline) 104 % of control.

For `CC(=O)COc1ccccc1NC(C)=O`, the T/C is 109 % of control (dose: 100.0 mg/kg/injection, schedule: Q04DX003 (ip), vehicle: saline with Tween-80); 90 % of control (dose: 200.0 mg/kg/injection, schedule: Q04DX003 (ip), vehicle: saline with Tween-80); 100 % of control (dose: 400.0 mg/kg/injection, schedule: Q04DX003 (ip), vehicle: saline with Tween-80).

As to `Cc1ccc([B-]23OCC[N+]2(CNC(=O)c2ccccc2O)CCO3)cc1` (configuration not stated), the T/C is 103 % of control under setting [10], 108 % of control under setting [11] and 103 % of control under setting [12].

Consider `CCOc1nnc(-c2ccc(OC)c(OC)c2)o1`, for which the T/C runs as follows: (dose: 12.5 mg/kg/injection, schedule: Q01DX009 (ip), vehicle: other) 90 % of control; (dose: 100.0 mg/kg/injection, schedule: Q01DX009 (ip), vehicle: other) 106 % of control; (dose: 200.0 mg/kg/injection, schedule: Q01DX009 (ip), vehicle: other) 90 % of control.

As to `Oc1ccc(Cl)cc1C1c2ccccc2Oc2ccccc21`, the T/C under setting [3] was 115 % of control and the T/C (dose: 100.0 mg/kg/injection, schedule: Q01DX009 (ip), vehicle: Klucel (hydroxypropylcellulose) (HPC)) was 108 % of control.

`Cc1cc(NC(=S)SCc2ccc3c(c2)OCO3)c([N+](=O)[O-])cc1C`: the T/C reads like this: (dose: 50.0 mg/kg/injection, schedule: Q01DX009 (ip), vehicle: suspension in saline) 98 % of control; (dose: 100.0 mg/kg/injection, schedule: Q01DX009 (ip), vehicle: suspension in saline) 100 % of control; (dose: 200.0 mg/kg/injection, schedule: Q01DX009 (ip), vehicle: suspension in saline) 108 % of control.

With `CC1=CCCN(C)C1c1ccccc1` (configuration not stated), the T/C is 99 % of control under setting [13] and 99 % of control under setting [14].

For `CN(C/C(=N/O)c1ccccc1)C(=O)c1ccccc1`, the T/C runs as follows: under setting [13], 98 % of control; under setting [14], 100 % of control; (dose: 200.0 mg/kg/injection, schedule: Q01DX005 (ip), vehicle: saline) 97 % of control.

With `CCOc1ccc2nc(SCCl)sc2c1`, the T/C was 101 % of control under setting [9], 99 % of control under setting [4] and 91 % of control under setting [6].

With `NC(=S)N/N=C/c1cn(-c2ccccc2[N+](=O)[O-])cn1`, the T/C (dose: 100.0 mg/kg/injection, schedule: Q04DX003 (ip), vehicle: Klucel (hydroxypropylcellulose) (HPC)) was 103 % of control and the T/C under setting [8] was 90 % of control.

Take `c1ccc(CN2COc3c4c(c5ccccc5c3C2)CN(Cc2ccccc2)CO4)cc1`: the T/C runs as follows: (dose: 50.0 mg/kg/injection, schedule: Q01DX005 (ip), vehicle: saline with Tween-80) 90 % of control; (dose: 100.0 mg/kg/injection, schedule: Q01DX005 (ip), vehicle: saline with Tween-80) 103 % of control; (dose: 200.0 mg/kg/injection, schedule: Q01DX005 (ip), vehicle: saline with Tween-80) 93 % of control.

`COC(C(N)=O)c1ccccc1` (configuration not stated): the T/C is, setting by setting: (dose: 12.5 mg/kg/injection, schedule: Q01DX009 (ip), vehicle: saline) 120 % of control; (dose: 25.0 mg/kg/injection, schedule: Q01DX009 (ip), vehicle: saline) 110 % of control; under setting [5], 103 % of control; under setting [15], 103 % of control; (dose: 400.0 mg/kg/injection, schedule: Q01DX009 (ip), vehicle: saline) 106 % of control.

Turning to `CCON(C=Nc1ccc(Cl)c(Cl)c1)c1ccc(Cl)c(Cl)c1`, the T/C is 103 % of control under setting [5], 102 % of control under setting [7] and 91 % of control under setting [15].
